Results published in patent US9353090B2, “Heterocyclic carboxylic acids as activators of soluble guanylate cyclase” (Boehringer Ingelheim International GmbH, priority 2014, dated 2016).
≈ marks a conversion by molar mass, not a printed value.

Tests used:
physchem = conditions: kinetic from dmso stock
[1] = Human liver microsome (HLM) metabolic stability assay; format: in vitro ADME; conditions: human liver microsomes
Method: The 5 time point, high-throughput human liver microsome (HLM) metabolic stability assay is designed to determine in vitro compound metabolism. Compounds are incubated with HLMs at a concentration of 1 uM, at 37° C., for a total of 60 min. The percent of compound remaining at 5, 15, 30, and 60 min is used to calculate the t1/2 (min), CLint (mL/min/kg), CLh (mL/min/kg), and % Qh. The assay is based on a 96-well format and can accommodate up to 92 compounds per plate (n=1).
Using the 96-well multi-channel head, the Biomek FX, equipped with a Peltier heating block/shaker, is programmed to accomplish the following steps: • 1. Pipette 175 uL of 1.15 mg/mL microsomes into each of the 96 conical inserts (Analytical Sales and Products, catalog number 96PL05) that fit into the plate of the Peltier heating block/shaker (the incubation plate) • 2. Add 5 uL of compounds from the assay plate to the microsomes and shake the mixture at 600 rpm at 42.1° C. for 10 min (a setting of 42.1° C. on the Peltier is required for the samples to incubate at 37° C.) • 3. After 10 min, prompt the user to add the NADPH plate to the deck and add 20 uL from the NADPH plate to the incubation plate to start the reaction • 4. Add 215 uL of 100%, cold acetonitrile containing an internal standard(s) to a 0 minute, 5 minute, 15 minute, 30 minute, and 60 minute “quench” plate • 5. At 0 min, 5 min, 15 min, 30 min, and 60 min into the incubation, aspirate 12 uL from the incubation mixture and add it to the quench solution to stop the reaction • 6. Add 185 uL HPLC grade water to each well of the 0, 5, 15, 30 and 60 minute quench plates to dilute compounds to the appropriate concentration for the mass spectrometer
After all time points are collected, the quench plates are sealed with 96-well pierceable plate mats or heat sealing foil and centrifuged at 3000 rpm for 15 min to pellet the microsomes.
The plates are analyzed using LC/MS/MS with electron spray ionization (ESI) and the previously determined MRM transitions. The LC method includes the following parameters:
Using an Excel template in Activitybase, the peak areas corresponding to 5, 15, 30 and 60 min are compared to the peak area at 0 min to calculate the percent of remaining compound using the following equation:
Percent compound remaining=(AUC at Time t min/AUC at Time 0 min)×100 where t=0, 5, 15, 30 or 60 min.
Time (min) is plotted against the natural logarithm (Ln) of the percent compound remaining to determine the slope. The slope is used to calculate t1/2 (min) using the equation, t1/2=0.693/slope.
Clh, Hepatic clearance • Hepatic flow*f(u)*Clint/(hepatic flow+f(u)*Clint)
Qh, % Hepatic blood flow • (Clh/Hepatic flow)*100
Preferred compounds have % Qh values of less than 24.

[2] = target: human soluble guanylate cyclase alpha 1 and beta 1 subunits (sGC) (Homo sapiens (Human), UniProt Q02108+Q02153); experiment: sGC cellular activator assay (cGMP, HTRF), in the presence and absence of 50% human serum; format: cell-based; conditions: CHO cells stably expressing human sGC alpha 1/beta 1, preincubated with 40 microM ODQ; cGMP by HTRF; Table 2 does not state whether with or without 50% human serum
Sequence of human soluble guanylate cyclase alpha 1 and beta 1 subunits (sGC) (Q02108 whole entry partner): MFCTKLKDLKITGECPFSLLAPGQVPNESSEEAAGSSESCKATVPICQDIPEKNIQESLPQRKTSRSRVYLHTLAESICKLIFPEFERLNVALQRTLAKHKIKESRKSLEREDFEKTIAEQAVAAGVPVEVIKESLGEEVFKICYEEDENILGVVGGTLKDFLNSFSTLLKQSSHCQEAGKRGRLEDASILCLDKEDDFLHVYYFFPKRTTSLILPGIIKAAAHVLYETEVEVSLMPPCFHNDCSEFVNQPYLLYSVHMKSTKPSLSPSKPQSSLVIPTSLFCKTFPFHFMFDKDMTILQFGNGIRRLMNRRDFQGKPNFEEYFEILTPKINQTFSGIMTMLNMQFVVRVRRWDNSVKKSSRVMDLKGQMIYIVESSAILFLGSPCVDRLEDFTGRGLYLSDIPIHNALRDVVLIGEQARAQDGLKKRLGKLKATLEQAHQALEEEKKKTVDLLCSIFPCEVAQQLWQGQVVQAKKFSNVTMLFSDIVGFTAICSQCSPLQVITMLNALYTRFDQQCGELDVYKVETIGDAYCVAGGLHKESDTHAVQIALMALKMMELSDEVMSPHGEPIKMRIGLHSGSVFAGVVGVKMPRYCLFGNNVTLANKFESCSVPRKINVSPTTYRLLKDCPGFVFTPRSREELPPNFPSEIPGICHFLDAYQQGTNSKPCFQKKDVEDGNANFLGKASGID
Sequence of human soluble guanylate cyclase alpha 1 and beta 1 subunits (sGC) (Q02153 whole entry): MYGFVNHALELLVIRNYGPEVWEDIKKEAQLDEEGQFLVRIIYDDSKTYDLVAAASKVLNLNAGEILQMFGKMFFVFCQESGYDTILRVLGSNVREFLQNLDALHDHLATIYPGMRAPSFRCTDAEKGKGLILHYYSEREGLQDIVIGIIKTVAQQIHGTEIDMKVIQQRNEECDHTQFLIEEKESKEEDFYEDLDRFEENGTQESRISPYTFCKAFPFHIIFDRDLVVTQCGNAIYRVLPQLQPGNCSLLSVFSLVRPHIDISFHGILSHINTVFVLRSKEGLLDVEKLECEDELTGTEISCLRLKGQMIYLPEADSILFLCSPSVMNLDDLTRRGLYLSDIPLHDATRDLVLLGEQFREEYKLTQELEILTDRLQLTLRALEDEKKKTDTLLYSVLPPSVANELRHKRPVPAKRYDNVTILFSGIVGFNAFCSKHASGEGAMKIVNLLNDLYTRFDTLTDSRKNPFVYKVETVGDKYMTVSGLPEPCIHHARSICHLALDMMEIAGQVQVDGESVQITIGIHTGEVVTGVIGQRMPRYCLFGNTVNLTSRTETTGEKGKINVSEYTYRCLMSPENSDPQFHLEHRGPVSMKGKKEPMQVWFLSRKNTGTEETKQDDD
Method: The sGC cellular activator assay is performed in the presence and absence of 50% human serum (HS) using Chinese hamster ovary cells that have been stably transfected to express the human soluble guanylate cyclase alpha 1 and beta 1 subunits (sGC). Cells are preincubated with 40 microM 1H-[1,2,4]oxadiazolo[4,3-a]quinoxalin-1-one (ODQ), an sGC inhibitor, for one h in buffer containing 0.1% bovine serum albumin and 3-isobutyl-1-methylxanthine (IBMX). Concentration response curves are prepared for test compounds in DMSO. An intermediate dilution of the compounds is performed in either buffer containing IBMX or type AB HS containing IBMX. Diluted compounds are added to cells and they are incubated at room temperature for thirty min. cGMP is measured using a CisBio homogeneous time resolved fluorescence kit and the EC50 is calculated for each compound.
Representative compounds of the present invention were tested for activity the above assay. Preferred compounds have an EC50 of <1,000 nM in the above assay and more preferred compounds have an EC50<200 nM.

[3] = pH 2.2, aqueous buffer, Solubility (pH 2.2)
[4] = pH 4.5, aqueous buffer, Solubility (pH 4.5)
[5] = pH 6.8, aqueous buffer, Solubility (pH 6.8)

COCc1cc(COc2c(C)cccc2-c2cccc(N3C[C@@H]4C[C@]4(C(=O)O)[C@H]3COC)n2)cc2c1CN(C1CCOCC1)CC2 [Compound 279]
solubility at 24 h (physchem; [3]): 128 µg/mL (≈ 203 µM) | solubility at 24 h (physchem; [4]): 100 µg/mL (≈ 160 µM) | solubility at 24 h (physchem; [5]): 82.8 µg/mL (≈ 132 µM) | Metabolic stability (Qh %), % hepatic blood flow [1]: <24% | EC50 [2]: 65 nM

COc1cc(COc2c(C)cccc2-c2cccc(N3C[C@@H]4C[C@]4(C(=O)O)C3)n2)cc2c1CN(C1COC1)CC2 [Compound 28]
solubility at 24 h (physchem; [3]): 110 µg/mL (≈ 203 µM) | solubility at 24 h (physchem; [4]): 90 µg/mL (≈ 166 µM) | solubility at 24 h (physchem; [5]): 73 µg/mL (≈ 135 µM) | Metabolic stability (Qh %), % hepatic blood flow [1]: <24% | EC50 [2]: 19 nM

COC[C@H]1N(c2cccc(-c3cccc(C(F)(F)F)c3OCc3cc(C)c4c(c3)CCN(C3CCOCC3)C4)n2)C[C@@H]2C[C@@]21C(=O)O [Compound 220]
solubility at 24 h (physchem; [3]): 167 µg/mL (≈ 256 µM) | solubility at 24 h (physchem; [4]): 136 µg/mL (≈ 209 µM) | solubility at 24 h (physchem; [5]): 133 µg/mL (≈ 203 µM) | Metabolic stability (Qh %), % hepatic blood flow [1]: 34% | EC50 [2]: 9 nM

CCO[C@@H]1CN(c2nc(-c3cc(C)ccc3OCc3cc(OC)c4c(c3F)CCN(C3CCOCC3)C4)cs2)CC[C@@H]1C(=O)O [Compound 272]
solubility at 24 h (physchem; [3]): 128 µg/mL (≈ 201 µM) | solubility at 24 h (physchem; [4]): 54.1 µg/mL (≈ 84.6 µM) | solubility at 24 h (physchem; [5]): 18.5 µg/mL (≈ 28.9 µM) | Metabolic stability (Qh %), % hepatic blood flow [1]: <24% | EC50 [2]: 2 nM

COC[C@H]1N(c2cccc(-c3cccc(C)c3OCc3cc(C)c4c(c3)OCCN(C3CCOCC3)C4)n2)C[C@@H]2C[C@@]21C(=O)O [Compound 314]
solubility at 24 h (physchem; [3]): 115 µg/mL (≈ 188 µM) | solubility at 24 h (physchem; [4]): 110 µg/mL (≈ 179 µM) | solubility at 24 h (physchem; [5]): 98.9 µg/mL (≈ 161 µM) | Metabolic stability (Qh %), % hepatic blood flow [1]: <24% | EC50 [2]: 529 nM

COC[C@H]1N(c2cccc(-c3cccc(C)c3OCc3cc(C)c4c(c3)CCN(C3CCOCC3)C4)n2)C[C@@H]2C[C@@]21C(=O)O [Compound 48]
solubility at 24 h (physchem; [3]): 110 µg/mL (≈ 184 µM) | solubility at 24 h (physchem; [4]): 69 µg/mL (≈ 115 µM) | solubility at 24 h (physchem; [5]): 83 µg/mL (≈ 139 µM) | Metabolic stability (Qh %), % hepatic blood flow [1]: <24% | EC50 [2]: 18 nM

COc1cc(COc2c(Cl)cccc2-c2cccc(N3CC[C@@H](C(=O)O)[C@@H](OC)C3)n2)cc2c1CN(C1CCOCC1)CC2 [Compound 251]
solubility at 24 h (physchem; [3]): 155 µg/mL (≈ 249 µM) | solubility at 24 h (physchem; [4]): 90.7 µg/mL (≈ 146 µM) | solubility at 24 h (physchem; [5]): 66.6 µg/mL (≈ 107 µM) | Metabolic stability (Qh %), % hepatic blood flow [1]: 36% | EC50 [2]: 6 nM

Cc1cc(COc2c(C)cccc2-c2ccnc(N3C[C@@H]4C[C@]4(C(=O)O)C3)n2)cc2c1CN(C1CCOCC1)CC2 [Compound 190]
solubility at 24 h (physchem; [3]): 99 µg/mL (≈ 178 µM) | solubility at 24 h (physchem; [4]): 71 µg/mL (≈ 128 µM) | solubility at 24 h (physchem; [5]): 74 µg/mL (≈ 133 µM) | Metabolic stability (Qh %), % hepatic blood flow [1]: <24% | EC50 [2]: 17 nM

Cc1ccc(OCc2ccc3c(c2C)CCN(C2CCOC2)C3)c(-c2csc(N3CC[C@@]4(C(=O)O)C[C@H]4C3)n2)c1 (some centres unmarked) [Compound 119]
solubility at 24 h (physchem; [3]): 120 µg/mL (≈ 214 µM) | solubility at 24 h (physchem; [4]): 18 µg/mL (≈ 32.2 µM) | solubility at 24 h (physchem; [5]): 1.3 µg/mL (≈ 2.32 µM) | Metabolic stability (Qh %), % hepatic blood flow [1]: <24% | EC50 [2]: 3 nM

Cc1ccc(OCc2ccc3c(c2)CCN(C2CCOCC2)C3=O)c(-c2cccc(N3CC[C@@]4(C(=O)O)C[C@H]4C3)n2)c1 [Compound 193]
Metabolic stability (Qh %), % hepatic blood flow [1]: 52% | EC50 [2]: 22 nM

COC[C@H]1N(c2cccc(-c3cccc(F)c3OCc3ccc4c(c3C)CCN(C3CCOCC3)CC4)n2)C[C@@H]2C[C@@]21C(=O)O [Compound 212]
solubility at 24 h (physchem; [3]): 136 µg/mL (≈ 221 µM) | solubility at 24 h (physchem; [4]): 96.6 µg/mL (≈ 157 µM) | solubility at 24 h (physchem; [5]): 72.7 µg/mL (≈ 118 µM) | Metabolic stability (Qh %), % hepatic blood flow [1]: <24% | EC50 [2]: 34 nM

Cc1ccc(OCc2cc(C)c3c(c2)CCN(C2CCOCC2)C3)c(-c2cccc(N3C[C@@H]4C[C@]4(C(=O)O)C3)n2)c1 [Compound 37]
solubility at 24 h (physchem; [3]): 100 µg/mL (≈ 181 µM) | solubility at 24 h (physchem; [4]): 93 µg/mL (≈ 168 µM) | solubility at 24 h (physchem; [5]): 50 µg/mL (≈ 90.3 µM) | Metabolic stability (Qh %), % hepatic blood flow [1]: <24% | EC50 [2]: 299 nM

CO[C@H]1CN(c2nc(-c3cc(C)ccc3OCc3ccc4c(c3C)CCN(C[C@H]3CCOC3)C4)cs2)CC[C@H]1C(=O)O [Compound 179]
EC50 [2]: 17 nM

CCO[C@H]1CN(c2nccc(-c3cccc(C)c3OCc3cc(C)c4c(c3)CCN(C3CCOCC3)C4)n2)CC[C@H]1C(=O)O [Compound 245]
Metabolic stability (Qh %), % hepatic blood flow [1]: <24% | EC50 [2]: 23 nM

Cc1ccc(OCc2ccc3c(c2)CCN(C2CCC(F)(F)CC2)C3)c(-c2csc(N3C[C@H]4CC[C@@H](C3)[C@H]4C(=O)O)n2)c1 [Compound 183]
Metabolic stability (Qh %), % hepatic blood flow [1]: 42% | EC50 [2]: 80 nM

COCC(C)N1CCc2c(ccc(COc3ccccc3-c3cccc(N4CC[C@@]5(C(=O)O)C[C@H]5C4)n3)c2C)C1 (some centres unmarked) [Compound 310]
solubility at 24 h (physchem; [3]): 93 µg/mL (≈ 172 µM) | solubility at 24 h (physchem; [4]): 73.7 µg/mL (≈ 136 µM) | solubility at 24 h (physchem; [5]): 5.2 µg/mL (≈ 9.6 µM) | EC50 [2]: 5 nM

CO[C@H]1CN(c2nc(-c3cccc(C)c3OCc3cc(C)c4c(c3)CCN(C3CCOCC3)CC4)cs2)CC[C@H]1C(=O)O [Compound 295]
solubility at 24 h (physchem; [3]): 109 µg/mL (≈ 180 µM) | solubility at 24 h (physchem; [4]): 80.5 µg/mL (≈ 133 µM) | solubility at 24 h (physchem; [5]): 79.2 µg/mL (≈ 131 µM) | Metabolic stability (Qh %), % hepatic blood flow [1]: <24%

Cc1csc(CN2CCc3c(ccc(COc4ccccc4-c4cccc(N5CC[C@@]6(C(=O)O)C[C@H]6C5)n4)c3C)C2)n1 [Compound 304]
solubility at 24 h (physchem; [3]): 157 µg/mL (≈ 270 µM) | solubility at 24 h (physchem; [4]): 154 µg/mL (≈ 265 µM) | solubility at 24 h (physchem; [5]): 146 µg/mL (≈ 251 µM) | Metabolic stability (Qh %), % hepatic blood flow [1]: 48%

CO[C@H]1CN(c2nc(-c3cccc(Cl)c3OCc3ccc4c(c3)CCN(C3CCOCC3)C[C@H]4C)cs2)CC[C@H]1C(=O)O [Compound 333]
solubility at 24 h (physchem; [3]): 109 µg/mL (≈ 173 µM) | solubility at 24 h (physchem; [4]): 68.3 µg/mL (≈ 109 µM) | solubility at 24 h (physchem; [5]): 66.7 µg/mL (≈ 107 µM) | EC50 [2]: 10 nM

Cc1ccc(OCc2ccc3c(c2)CCN(C2CCOCC2)C3)c(-c2csc(N3C[C@H]4CC[C@@H](C3)[C@H]4C(=O)O)n2)c1 [Compound 184]
EC50 [2]: 68 nM

CCO[C@@H]1CN(c2nccc(-c3cccc(C)c3OCc3cc(C)c4c(c3)CCN(C3CCOCC3)C4)n2)CC[C@@H]1C(=O)O [Compound 247]
Metabolic stability (Qh %), % hepatic blood flow [1]: <24% | EC50 [2]: 659 nM

CO[C@H]1CN(c2nc(-c3cccc(C)c3OCc3cc(C)c4c(c3)CCN(C3COC3)CC4)cs2)CC[C@H]1C(=O)O [Compound 294]
solubility at 24 h (physchem; [3]): 108 µg/mL (≈ 187 µM) | solubility at 24 h (physchem; [4]): 77.7 µg/mL (≈ 134 µM) | solubility at 24 h (physchem; [5]): 77.9 µg/mL (≈ 135 µM) | Metabolic stability (Qh %), % hepatic blood flow [1]: <24%

Cc1cccc(-c2cccc(N3CC[C@@H](C(=O)O)[C@H]4OCCC[C@@H]43)n2)c1OCc1ccc2c(c1C)CCN(C1CCOCC1)CC2 [Compound 335]
EC50 [2]: 80 nM
